Assay results as given in patent US10865435B2, “Method of screening antibacterial compounds as inhibitor of Mfd” (INSTITUT NATIONAL DE LA RECHERCHE AGRONOMIQUE, priority 2016, dated 2020).

System: Bacillus cereus strain Bc 407
Test: Molecule capacity to inhibit bacterial growth in the presence of artificially produced nitric oxide (cfu plating)
Format: cell-based
Protocol: Bacteria (Bacillus cereus strain Bc 407) were grown in LB medium until mid exponential growth phase at 37° C. with shaking. Cultures were then diluted to 10^4 cfu/ml in PBS (Phosphate Buffered Saline, Sigma). The molecules to be tested (potential Mfd inhibitors) are added at a concentration of 0 to 1 mM to the bacteria and the bacteria+inhibitors are incubated at room temperature for 1 h without agitation.
Bacteria were then exposed directly to chemically generated NO+ in a cell-free system as described by Miyagi et al. (Miyagi et al., 1997) with modifications. Briefly, 10^4 bacterial cfu (+various concentrations of potential Mfd inhibitors) are incubated in RPMI-1640 medium (Invitrogen) at acidic pH (pH 5.4) either in the absence or in the presence of 1.5 mM sodium nitrite (Walco Pure Chemical Industries Ltd) at 37° C. for 1 h under shaking; under these acidic conditions, NO+ is generated from the sodium nitrite by a chemical reaction (Miyagi et al., 1997).
The bacteria are harvested and plated on agar plates to evaluate bacterial survival. The cfu obtained without nitric oxide stress gives the toxicity value whereas the cfu obtained following nitric oxide stress gives the inhibitor efficacy value. Using this cell free assay, the inhibitor concentration required to decrease by 50% the survival rate of the bacteria (IC50) in the presence of nitric oxide stress compared to untreated bacteria is calculated using the GraphPad PRISM software (version 6.0, GraphPad Software, San Diego, Calif.) with non-linear regression.

SMILES: CN1CC(=O)N2[C@H](c3ccc4c(c3)OCO4)c3[nH]c4ccccc4c3C[C@@H]2C1=O [tadalafil, (6R-trans)-6-(1,3-benzodioxol-5-yl)-2,3,6,7,12,12a-hexahydro-2-methyl-pyrazino[1′,2′:1,6]pyrido[3,4-b]indole-1,4-dione]
- IC50 (1.5 mM sodium nitrite, pH 5.4, 37° C., 1 h, mean of two experiments, read-out: IC50 (concentration required to decrease by 50% the survival rate of the bacteria in the presence of nitric oxide stress compared to untreated bacteria)): 98.7 µM
- activity on B. cereus survival with nitric oxide (NO) stress (with NO stress, at 100 μM): activity
- activity on B. cereus survival without stress (toxicity) (without nitric oxide stress, until 100 μM): weak activity
